# Values of other authors, collected in US12102645B2, “Fluticasone furoate nasal preparation composition” (TOKO YAKUHIN KOGYO CO., LTD., priority 2018, dated 2024).
structure (smiles),measurement,value
"C[C@@H]1C[C@H]2[C@@H]3C[C@H](F)C4=CC(=O)C=C[C@]4(C)[C@@]3(F)[C@@H](O)C[C@]2(C)[C@@]1(OC(=O)c1ccco1)C(=O)SCF [Fluticasone furoate, 6α,9-difluoro-17β-[(fluoromethylsulfanyl)carbonyl]-11β-hydroxy-16α-methyl-3-oxoandrosta-1,4-dien-17α-yl furan-2-carboxylate]",Solubility in water,very slightly soluble
